# In ChEMBL document CHEMBL5120976, “Application of Deuterated N,N-Dimethyltryptamine in the Potential Treatment of Psychiatric and Neurological Disorders” (ACS Med Chem Lett, 2022):
# Assays:
# Format in all cases: ADME, cell-based, Hepatocyte
# [1] = Intrinsic clearance in human hepatocytes assessed per 10^6 cells relative to SPL026
# [2] = Half life in human hepatocytes
# [3] = Intrinsic clearance in human hepatocytes assessed per 10^6 cells; settings: read-out: CLH
Structure (SMILES),fold change (FC) [1],half-life [2],hepatocyte CLint [3]
O=C(O)/C=C/C(=O)O.[2H]C([2H])([2H])N(C([2H])([2H])[2H])C([2H])([2H])Cc1c[nH]c2ccccc12,2.1,3.45 h,9.3 µL/min/1e6 cells
O=C(O)/C=C/C(=O)O.[2H]C([2H])([2H])N(CCc1c[nH]c2ccccc12)C([2H])([2H])[2H],1.1,,
